The text below walks through data of ChEMBL document CHEMBL4177765, “Structure-Based Design of Inhibitors Targeting PrfA, the Master Virulence Regulator of Listeria monocytogenes” (J Med Chem, 2018).

The target of data set [1] is T1, Listeriolysin regulatory protein (Listeria monocytogenes serovar 1/2a (strain ATCC BAA-679 / EGD-e), UniProt P22262).
T1 sequence (P22262 whole entry): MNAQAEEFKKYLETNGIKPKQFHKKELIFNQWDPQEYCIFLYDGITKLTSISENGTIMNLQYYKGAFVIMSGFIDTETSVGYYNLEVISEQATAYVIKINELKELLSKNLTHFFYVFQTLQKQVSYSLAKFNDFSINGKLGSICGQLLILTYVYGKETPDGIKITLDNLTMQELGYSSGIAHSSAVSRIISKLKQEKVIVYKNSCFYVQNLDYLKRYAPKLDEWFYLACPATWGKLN
Put plainly: Binding affinity to Listeria monocytogenes 6-His-tagged PrfA expressed in Escherichia coli BL21 (DE3) pLysS assessed as inhibition of protein binding with biotinylated hpt-DNA by SPR method.

Data set [2] has as its target T2, Listeriolysin regulatory protein (Listeria monocytogenes serovar 1/2a (strain ATCC BAA-679 / EGD-e)) (UniProt P22262).
T2 sequence (whole entry): T1 sequence (P22262 whole entry)
Put plainly: Inhibition of PrfA in Listeria monocytogenes EGD-e assessed as downregulation of ActA expression at 10 uM by Western blot method.

Data set [3] addresses T2, Listeriolysin regulatory protein (Listeria monocytogenes serovar 1/2a (strain ATCC BAA-679 / EGD-e)). Put plainly: Inhibition of PrfA in Listeria monocytogenes EGD-e assessed as downregulation of ActA expression at 1 uM by Western blot method.
Data set [4] has the same target. Put plainly: Inhibition of PrfA in Listeria monocytogenes EGD-e assessed as downregulation of LLO expression at 10 uM by Western blot method.
For data set [5] the target is unchanged. Put plainly: Inhibition of PrfA in Listeria monocytogenes EGD-e assessed as downregulation of LLO expression at 1 uM by Western blot method.
Data set [6] has the same target. Put plainly: Binding affinity to GFP expressing Listeria monocytogenes EGD-e PrfA expressed in Escherichia coli assessed as inhibition of bacterial uptake in human Caco2 cells at 20 uM incubated for 4 hrs by flow cytometric method relative to (R)-8-cyclopropyl-7-(naphthalen-1-ylmethyl)-5-oxo-3,5-dihydro-2H-thiazolo[3,2-a]pyridine-3-carboxylic acid.
The subject of data set [7] is Listeria monocytogenes. Put plainly: Effect on growth of Listeria monocytogenes EGD-e at 100 uM after 7 hrs. The format is organism-based. The following applies: in vivo.
Data set [8] concerns the target T2, Listeriolysin regulatory protein (Listeria monocytogenes serovar 1/2a (strain ATCC BAA-679 / EGD-e)). Put plainly: Binding affinity to Listeria monocytogenes 6-His-tagged PrfA expressed in Escherichia coli BL21 (DE3) pLysS by ITC method.
Data set [9] has as its system Listeria monocytogenes. Put plainly: Antivirulence activity against Listeria monocytogenes EGD-e infected in chicken embryo assessed as increase in embryo life span at 5 uM measured over 72 hrs. The format is functional.
For data set [10], the species on record is Gallus gallus. Put plainly: Toxicity in chicken embryo at 4 to 8 uM measured over 72 hrs. The format is organism-based. The following applies: in vivo.
Data set [11] deals with Listeria monocytogenes. Put plainly: Effect on PrfA expression in Listeria monocytogenes EGD-e at 1 uM by Western blot method. The format is functional.
Data set [12] has as its target T2, Listeriolysin regulatory protein (Listeria monocytogenes serovar 1/2a (strain ATCC BAA-679 / EGD-e)). Put plainly: Binding affinity to GFP expressing Listeria monocytogenes EGD-e PrfA expressed in Escherichia coli assessed as inhibition of bacterial uptake in human Caco2 cells at 1 uM incubated for 4 hrs by flow cytometric method relative to control.

Activity calls are given as the source filed them. No cut-off for these calls is given here.

Regarding `O=C(O)[C@@H]1CSc2c(C3CC3)c(Cc3cccc4ccccc34)cc(=O)n21`, the 50% inhibitory concentration (IC50) in [1] stood at 4.5 µM. Also, the inhibition entry in data set [2], in data set [3], in [4] and in [5] was “Active” in each case.

Consider `Cc1ccc(Cc2cc(=O)n3c(c2C2CC2)SC[C@H]3C(=O)O)c2ccccc12`, for which the fold change (FC) in [6] was 0.5.

In the case of `O=C(O)[C@@H]1CSc2c(C3CC3)c(Cc3cnc4ccccc4c3)cc(=O)n21`, the fold change (FC) in [6] was 13.

As to `CN(C)c1c(Cc2cccc3ccccc23)cc(=O)n2c1SCC2C(=O)O.Cl` (racemic), in data set [6], the fold change (FC) was 0.7. Further, in data set [1], the half-inhibitory concentration (IC50) came out at 1.8 µM. Further, the inhibition result in data set [2], in data set [3], in data set [4] and in data set [5] was “Active” throughout. The Activity result in [7] was “Non-Toxic”. Moreover, in [8], the result was Active.

Take `COc1c(Cc2cccc3ccccc23)cc(=O)n2c1SCC2C(=O)O` (racemic): the fold change (FC) in data set [6] came out at 7. Also, the half-maximal inhibitory concentration (IC50) in data set [1] worked out at 65.6 µM. The inhibition entry in [2], in data set [3], in data set [4] and in data set [5] was “inactive” in each case. Also, in data set [8], the outcome was Active.

Turning to `Cc1cccc(Cc2cc(=O)n3c(c2N(C)C)SCC3C(=O)O)c1C` (racemic), in data set [6], the fold change (FC) came out at 0.6. The IC50 in data set [1] was found to be 3 µM. The inhibition entry in data set [2], in data set [3], in data set [4] and in [5] was “Active” throughout. The Activity result in data set [7] is recorded as “Non-Toxic”. The result in data set [8] was Active.

For the compound `C=CCOc1c(Cc2cccc3ccccc23)cc(=O)n2c1SCC2C(=O)O` (racemic), the fold change (FC) in [6] was 4.

In the case of `CC(=O)Nc1c(Cc2cccc3ccccc23)cc(=O)n2c1SCC2C(=O)O` (racemic), in data set [6], the fold change (FC) was found to be 5.

On to `CC(C)COc1c(Cc2cccc3ccccc23)cc(=O)n2c1SCC2C(=O)O` (racemic), for which the fold change (FC) in [6] was determined as 4.

As to `CC(C)Nc1c(Cc2cccc3ccccc23)cc(=O)n2c1SCC2C(=O)O` (racemic), the fold change (FC) in data set [6] amounted to 3.

With `CCOc1c(Cc2cccc3ccccc23)cc(=O)n2c1SCC2C(=O)O` (racemic), the fold change (FC) in data set [6] worked out at 5.

Consider `CCc1cc(=O)n2c(c1N(C)C)SCC2C(=O)O` (racemic), for which the fold change (FC) in data set [6] was 10.

As for `COC(=O)Nc1c(Cc2cccc3ccccc23)cc(=O)n2c1SCC2C(=O)O` (racemic), in data set [6], the fold change (FC) amounted to 6.

For `CS(=O)(=O)Nc1c(Cc2cccc3ccccc23)cc(=O)n2c1SCC2C(=O)O` (racemic), in data set [6], the fold change (FC) is 5.

Turning to `CS(=O)(=O)c1c(Cc2cccc3ccccc23)cc(=O)n2c1SCC2C(=O)O` (racemic), in [6], the fold change (FC) is 7.

Regarding `Nc1c(Cc2cccc3ccccc23)cc(=O)n2c1SCC2C(=O)O` (racemic), in [6], the fold change (FC) was 3.

On to `O=C(O)C1CSc2c(O)c(Cc3cccc4ccccc34)cc(=O)n21` (racemic), for which the fold change (FC) in [6] was found to be 5.

Turning to `Cc1ccc(Cc2cc(=O)n3c(c2N(C)C)SCC3C(=O)O)c2ccccc12` (racemic; form 1) [listing 1 of 2 here], in data set [1], the IC50 came to 1.5 µM. Further, in data set [9], the ILS amounted to 6 h. The Activity result in [7] and in data set [10] was “Non-Toxic” throughout.

As to `Cc1ccc(Cc2cc(=O)n3c(c2N(C)C)SCC3C(=O)O)c2ccccc12` (racemic; form 1) [listing 2 of 2 here], the fold change (FC) in data set [6] was 0.7. In data set [11], the result was inactive. The inhibition in data set [12] amounted to 90%. Further, the inhibition entry in data set [3] and in [5] was “Active” throughout. For the same compound, the outcome in data set [8] was Active.

As to `Cc1ccc(Cc2cc(=O)n3c(c2N(C)C)SCC3C(=O)O)c2ccccc12.c1c[nH]cn1` (racemic; form 2), in data set [9], the ILS was 9 h.
